Measured values as given in US8846949B2, “Pyrrolopyrazoles as N-type calcium channel blockers” (Janssen Pharmaceutica NV, priority 2012, dated 2014).
Where two headings read alike, the source gives them in different places.

Columns and labels:
[1] = target: T1, N-type calcium channel (Homo sapiens, UniProt Q00975); assay: Automated electrophysiology assay (QPatch-HT whole-cell patch clamp); assay type: cell-based
T1 construct: expressed in transfected cells
Experimental: Cells were grown in T175 flasks to 50%-90% confluence. At the time of use, cells were enzymatically treated with Detachin (Genlantis, San Diego, Calif. USA), centrifuged, rinsed, and resuspended in 293 SFM II media (Life Technologies, Grand Island, N.Y. U.S.A.) supplemented with 25 mM HEPES (Sigma-Aldrich, St. Louis, Mo. U.S.A.) to a concentration of 2-3×10^6 cells/mL. Cells were added to the automated cell preparation station on the QPatch-HT (Sophion Biosciences, North Brunswick, N.J. U.S.A.), and following a 10- to 30-min recovery period with gentle stirring, the assay protocol was initiated. During the automated cell preparation, cells were collected, centrifuged and resuspended in an extracellular (EC) solution containing 132 mM NaCl, 1.8 mM CaCl2, 5.4 mM KCl, 0.8 mM MgCl2, 10 mM glucose, and 10 mM HEPES (pH=7.4), adjusted with sucrose to approximately 315 m0sm. The QPlate was primed with an intracellular solution containing 135 mM CsCl, 10 mM EGTA, 4 MgATP, 0.3 NaGTP, and 20 mM HEPES (pH=7.2), adjusted to approximately 290 m0sm with deionized water and the EC solution. Cells were added to the prepared QPlate wells by robotic pipettes of the QPatch-HT.
For cells determined to be in stable whole-cell patch clamp, the EC solution was replaced with a barium (Ba)/triethylammonium (TEA) solution containing 140 mM TEA-Cl, 10 mM BaCl2, 0.8 mM MgCl2, 10 mM glucose and 10 mM HEPES (pH=7.4). High (40 mM) BaCl2 concentrations were made with adjustments to TEA-C1 (90 mM) to maintain the osmolarity. From a resting potential of −80 mV, a train of depolarizing pulses (15 pulses at 5 Hz, +20 mV) was delivered to the cell once every 30 sec for eight trains (4 min total), and the resulting currents were measured during a control period (no compound). This protocol was repeated for each subsequent addition of control buffer with or without compound (three periods total, each with four trains). The current generated in the 1st and 15th pulses of the last train of each period in the presence of each drug concentration was normalized to the current generated during the control period at the respective pulses (representing low- and high-frequency stimulation, respectively). Data from both the second and third drug application periods were analyzed for each cell. A final addition of Ba/TEA solution containing 60-100 μM CdCl2 was made to block all N-type current and to “zero” the currents for each cell. All buffer/compound additions were made using a “spitting” feature of the QPatch-HT, which added three repetitions of 5 μL solution at the beginning of each recording period.
To examine closed-state inactivation, cells were subjected to a channel-activating 50-msec depolarizing step pulse from −80 to +10 mV, followed by a 5-sec nonactivating step to voltages ranging from −130 to −60 mV in 10 mV increments and then a 50-ms step from −80 to +10 mV to assess the remaining current. Currents from the activating voltage pulse were normalized to the peak value of the test pulse following the −130 mV step and fit to a Boltzman equation to obtain the V1/2. Roscovitine (Sigma-Aldrich) was prepared as a 100 mM stock in dimethyl sulfoxide and diluted to the indicated working concentrations. […]. Compounds of Formula (I) were diluted first into dimethyl sulfoxide and then into 10% pluronic F-127 in water (Life Technologies), sonicated for 1 min and diluted into EC buffer. Vehicle controls were run in parallel in all experiments.
Unless otherwise indicated, statistics for comparing among electrophysiological results utilized a one-way analysis of variance with Fisher's least squares determination test for pair-wise comparison.

[2] = target: T2, N-type calcium channel α1B (Cav2.2), β3 and α2δ subunits (Homo sapiens, UniProt Q00975); assay: Functional assay, antagonism of N-type calcium channel (FDSS calcium mobilization response to KCl depolarization); assay type: cell-based; settings: for IC50: HEK stable cell line, 50 mM KCl depolarization, six-point concentration-response; for inhibition at 0.33 µM: 0.33 μM compound, FDSS, 50 mM KCl
T2 construct: expressed in transfected cells
T2 sequence (Q00975 whole entry): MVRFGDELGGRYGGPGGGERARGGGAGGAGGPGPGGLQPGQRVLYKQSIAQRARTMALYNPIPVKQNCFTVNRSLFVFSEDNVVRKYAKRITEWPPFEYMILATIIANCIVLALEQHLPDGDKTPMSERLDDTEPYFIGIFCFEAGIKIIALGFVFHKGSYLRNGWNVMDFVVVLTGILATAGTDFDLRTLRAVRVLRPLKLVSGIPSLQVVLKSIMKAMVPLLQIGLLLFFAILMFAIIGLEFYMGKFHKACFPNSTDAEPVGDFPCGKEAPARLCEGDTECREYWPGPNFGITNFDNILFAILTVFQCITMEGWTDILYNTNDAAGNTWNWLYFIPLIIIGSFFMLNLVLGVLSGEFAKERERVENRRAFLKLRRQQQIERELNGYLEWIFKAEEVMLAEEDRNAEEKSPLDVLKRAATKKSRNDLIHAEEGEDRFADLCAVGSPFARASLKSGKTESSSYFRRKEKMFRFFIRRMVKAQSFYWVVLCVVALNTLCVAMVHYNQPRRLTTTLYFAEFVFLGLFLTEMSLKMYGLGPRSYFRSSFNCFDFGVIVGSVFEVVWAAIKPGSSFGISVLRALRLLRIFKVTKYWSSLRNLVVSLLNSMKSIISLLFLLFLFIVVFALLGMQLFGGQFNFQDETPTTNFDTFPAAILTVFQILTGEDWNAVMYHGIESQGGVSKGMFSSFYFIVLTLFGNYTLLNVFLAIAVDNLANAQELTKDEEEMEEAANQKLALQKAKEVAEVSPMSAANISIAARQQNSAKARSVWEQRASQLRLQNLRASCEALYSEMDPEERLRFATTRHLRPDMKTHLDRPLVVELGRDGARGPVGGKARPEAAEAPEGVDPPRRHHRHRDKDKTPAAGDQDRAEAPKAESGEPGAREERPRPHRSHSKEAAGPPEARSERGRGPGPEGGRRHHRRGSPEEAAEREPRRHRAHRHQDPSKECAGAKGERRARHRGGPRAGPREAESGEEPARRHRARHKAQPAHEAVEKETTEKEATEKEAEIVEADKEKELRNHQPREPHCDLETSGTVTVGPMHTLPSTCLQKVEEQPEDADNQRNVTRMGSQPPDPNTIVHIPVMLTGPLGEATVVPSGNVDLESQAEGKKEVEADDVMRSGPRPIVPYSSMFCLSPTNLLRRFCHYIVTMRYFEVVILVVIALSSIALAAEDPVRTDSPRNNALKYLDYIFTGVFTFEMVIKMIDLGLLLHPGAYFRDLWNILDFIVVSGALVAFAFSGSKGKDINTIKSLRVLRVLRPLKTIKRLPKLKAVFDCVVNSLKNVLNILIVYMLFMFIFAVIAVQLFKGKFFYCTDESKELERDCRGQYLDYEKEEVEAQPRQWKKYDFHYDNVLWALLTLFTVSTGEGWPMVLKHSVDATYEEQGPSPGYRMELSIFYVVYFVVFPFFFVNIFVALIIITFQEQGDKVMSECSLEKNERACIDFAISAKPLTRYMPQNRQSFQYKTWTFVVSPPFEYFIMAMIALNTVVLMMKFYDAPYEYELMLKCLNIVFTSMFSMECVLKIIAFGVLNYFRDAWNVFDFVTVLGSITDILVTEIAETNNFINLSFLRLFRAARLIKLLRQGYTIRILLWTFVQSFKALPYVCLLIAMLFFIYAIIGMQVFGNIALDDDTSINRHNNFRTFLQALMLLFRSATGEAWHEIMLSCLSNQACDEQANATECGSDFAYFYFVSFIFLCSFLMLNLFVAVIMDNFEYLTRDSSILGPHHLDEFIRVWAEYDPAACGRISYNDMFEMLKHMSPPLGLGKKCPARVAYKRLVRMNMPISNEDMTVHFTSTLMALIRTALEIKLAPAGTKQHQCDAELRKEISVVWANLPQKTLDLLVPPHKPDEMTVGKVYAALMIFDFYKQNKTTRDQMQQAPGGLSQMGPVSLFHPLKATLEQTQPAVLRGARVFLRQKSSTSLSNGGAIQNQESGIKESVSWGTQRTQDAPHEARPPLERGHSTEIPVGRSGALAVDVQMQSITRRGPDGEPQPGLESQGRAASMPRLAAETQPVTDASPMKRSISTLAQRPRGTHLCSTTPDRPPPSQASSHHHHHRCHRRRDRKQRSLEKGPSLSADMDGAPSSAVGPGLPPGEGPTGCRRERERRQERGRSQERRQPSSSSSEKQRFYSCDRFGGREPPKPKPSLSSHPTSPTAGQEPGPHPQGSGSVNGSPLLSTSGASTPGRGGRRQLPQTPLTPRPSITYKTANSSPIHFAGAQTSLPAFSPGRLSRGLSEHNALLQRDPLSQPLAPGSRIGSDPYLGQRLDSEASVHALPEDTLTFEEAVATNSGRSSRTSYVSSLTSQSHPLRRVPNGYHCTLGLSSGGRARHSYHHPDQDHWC
T2 sequence (P54284 whole entry partner): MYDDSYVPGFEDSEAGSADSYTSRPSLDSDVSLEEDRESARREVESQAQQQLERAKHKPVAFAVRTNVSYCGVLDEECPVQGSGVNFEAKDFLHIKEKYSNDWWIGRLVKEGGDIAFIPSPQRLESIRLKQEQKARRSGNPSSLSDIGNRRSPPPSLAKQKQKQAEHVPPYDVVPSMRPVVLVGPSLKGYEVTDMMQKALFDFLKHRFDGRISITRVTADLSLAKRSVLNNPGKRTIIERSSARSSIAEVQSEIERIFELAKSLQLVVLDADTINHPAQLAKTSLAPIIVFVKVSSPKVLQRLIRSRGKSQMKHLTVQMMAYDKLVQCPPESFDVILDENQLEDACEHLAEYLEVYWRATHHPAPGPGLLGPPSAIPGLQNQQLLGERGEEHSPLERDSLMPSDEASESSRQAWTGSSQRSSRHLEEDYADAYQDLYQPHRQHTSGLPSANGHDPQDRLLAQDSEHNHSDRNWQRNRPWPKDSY
T2 sequence (P54289 25-956 partner limits assumed): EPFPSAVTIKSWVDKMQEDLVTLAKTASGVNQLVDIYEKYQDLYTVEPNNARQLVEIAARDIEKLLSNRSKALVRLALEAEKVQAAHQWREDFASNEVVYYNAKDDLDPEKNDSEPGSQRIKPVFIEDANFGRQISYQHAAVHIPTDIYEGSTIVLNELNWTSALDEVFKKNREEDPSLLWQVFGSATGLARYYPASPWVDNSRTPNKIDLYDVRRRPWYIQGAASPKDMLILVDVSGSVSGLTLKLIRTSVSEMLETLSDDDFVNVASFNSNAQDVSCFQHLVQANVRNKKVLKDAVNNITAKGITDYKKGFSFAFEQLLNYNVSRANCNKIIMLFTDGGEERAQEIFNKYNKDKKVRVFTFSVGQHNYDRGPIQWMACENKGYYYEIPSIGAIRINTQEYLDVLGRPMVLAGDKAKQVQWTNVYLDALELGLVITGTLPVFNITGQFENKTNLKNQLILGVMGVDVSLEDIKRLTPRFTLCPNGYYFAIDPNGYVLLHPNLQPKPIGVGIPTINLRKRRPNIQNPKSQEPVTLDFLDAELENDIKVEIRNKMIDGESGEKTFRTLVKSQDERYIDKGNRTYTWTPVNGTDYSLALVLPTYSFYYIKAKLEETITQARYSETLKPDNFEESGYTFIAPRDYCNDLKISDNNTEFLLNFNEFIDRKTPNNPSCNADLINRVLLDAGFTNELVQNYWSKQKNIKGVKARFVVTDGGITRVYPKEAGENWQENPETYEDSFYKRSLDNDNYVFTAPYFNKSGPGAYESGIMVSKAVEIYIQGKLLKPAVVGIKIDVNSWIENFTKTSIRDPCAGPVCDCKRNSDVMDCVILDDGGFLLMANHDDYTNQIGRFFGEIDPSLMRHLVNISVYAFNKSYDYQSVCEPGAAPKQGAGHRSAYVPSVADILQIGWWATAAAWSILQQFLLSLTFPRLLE
T2 sequence (P54289 957-1103 partner limits assumed): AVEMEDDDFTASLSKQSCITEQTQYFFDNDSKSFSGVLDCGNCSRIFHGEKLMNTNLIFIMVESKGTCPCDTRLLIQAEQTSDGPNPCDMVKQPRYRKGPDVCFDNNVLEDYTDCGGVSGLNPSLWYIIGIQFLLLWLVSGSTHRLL
Method in brief: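 HEK cells stably co-expressing α1B (Cav2.2), β3 and α2δ subunits were loaded with calcium dye, preincubated with compound for 5 min, then depolarized with 50 mM KCl and read for 3 min by FDSS fluorescence. IC50 from six-point curves, normalized to KCl maximum and buffer minimum.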

[3] = high frequency (15th pulse of train, 5 Hz), read-out: QPatch at High Frequency % Inhibition
[4] = low frequency (1st pulse of train), read-out: QPatch at Low Frequency % Inhibition

T1 sequence (Q00975 whole entry): as the sequence (Q00975 whole entry) above
T1 sequence (P54284 whole entry partner): as the sequence (P54284 whole entry partner) above
T1 sequence (P54289 25-956 partner limits assumed): as the sequence (P54289 25-956 partner limits assumed) above
T1 sequence (P54289 957-1103 partner limits assumed): as the sequence (P54289 957-1103 partner limits assumed) above

Row | SMILES | inhibition at 0.1 µM [1, 3] [%] | inhibition at 0.1 µM [1, 4] [%] | IC50 [2] [nM] | inhibition at 1 µM [1, 3] [%] | inhibition at 1 µM [1, 4] [%] | inhibition at 0.33 µM [2] [%]
1 | COC(=O)CCS(=O)(=O)N1Cc2nn(-c3ccccc3OC(F)(F)F)c(-c3ccc(Cl)cc3)c2C1 [Cpd 47, Methyl 3-{[3-(4-chlorophenyl)-2-[2-(trifluoromethoxy)phenyl]-2,6-dihydropyrrolo[3,4-c]pyrazol-5(4H)-yl]sulfonyl}propanoate] | 36 | 8 | 31 |  |  | 
2 | CCOc1ccccc1-n1nc2c(c1-c1ccc(Cl)cc1)CN(S(C)(=O)=O)C2 [Cpd 49, 3-(4-Chlorophenyl)-2-(2-ethoxyphenyl)-5-(methylsulfonyl)-2,4,5,6-tetrahydropyrrolo[3,4-c]pyrazole] | 22 | 18 | 2 |  |  | 
3 | CCN(CC)S(=O)(=O)N1Cc2nn(-c3ccccc3OC)c(-c3ccc(Cl)cc3)c2C1 [Cpd 56, 3-(4-Chlorophenyl)-N,N-diethyl-2-(2-methoxyphenyl)-2,6-dihydropyrrolo[3,4-c]pyrazole-5(4H)-sulfonamide] | 36 | 28 | 3 |  |  | 
4 | COC(=O)C1CCN(S(=O)(=O)N2Cc3nn(-c4ccccc4OC)c(-c4ccc(Cl)cc4)c3C2)CC1 [Cpd 58, Methyl 1-{[3-(4-chlorophenyl)-2-(2-methoxyphenyl)-2,6-dihydropyrrolo[3,4-c]pyrazol-5(4H)-yl]sulfonyl}piperidine-4-carboxylate] | 52 | 53 | 5 |  |  | 
5 | COc1ccccc1-n1nc2c(c1-c1ccc(Cl)cc1)CN(S(=O)(=O)N1CCOCC1)C2 [Cpd 59, 3-(4-Chlorophenyl)-2-(2-methoxyphenyl)-5-(morpholin-4-ylsulfonyl)-2,4,5,6-tetrahydropyrrolo[3,4-c]pyrazole] | 51 | 28 | 2 |  |  | 
6 | COc1cc(Cl)ccc1-n1nc2c(c1-c1ccc(Cl)cc1)CN(S(=O)(=O)C(C)C)C2 [Cpd 64, 2-(4-Chloro-2-methoxyphenyl)-3-(4-chlorophenyl)-5-[(1-methylethyl)sulfonyl]-2,4,5,6-tetrahydropyrrolo[3,4-c]pyrazole] | 24 | 12 | 33 |  |  | 86
7 | COc1cc(Cl)ccc1-n1nc2c(c1-c1ccc(Cl)cc1)CN(S(=O)(=O)N(C)C)C2 [Cpd 65, 2-(4-Chloro-2-methoxyphenyl)-3-(4-chlorophenyl)-N,N-dimethyl-2,6-dihydropyrrolo[3,4-c]pyrazole-5(4H)-sulfonamide] | 1 | -8 | 150 |  |  | 74
8 | COc1cc(F)ccc1-n1nc2c(c1-c1ccc(Cl)cc1)CN(S(=O)(=O)N1CCC(C)CC1)C2 [Cpd 73, 3-(4-Chlorophenyl)-2-(4-fluoro-2-methoxyphenyl)-5-[(4-methylpiperidin-1-yl)sulfonyl]-2,4,5,6-tetrahydropyrrolo[3,4-c]pyrazole] | -28 | -34 | 24 |  |  | 93
9 | CCCC(C)S(=O)(=O)N1Cc2nn(-c3ccc(C)cc3OC)c(-c3ccc(Cl)cc3)c2C1 (stereo not drawn) [Cpd 76, 3-(4-Chlorophenyl)-2-(2-methoxy-4-methylphenyl)-5-[(1-methylbutyl)sulfonyl]-2,4,5,6-tetrahydropyrrolo[3,4-c]pyrazole] |  |  | 21 | 30 | -3 | 90
10 | CC(C)S(=O)(=O)N1Cc2nn(-c3cccc4c3OCO4)c(-c3ccc(Cl)cc3)c2C1 [Cpd 81, 2-(1,3-Benzodioxol-4-yl)-3-(4-chlorophenyl)-5-[(1-methylethyl)sulfonyl]-2,4,5,6-tetrahydropyrrolo[3,4-c]pyrazole] |  | -19 | 20 |  |  | 89

Continued by falling IC50 [2], values first:

Row | inhibition at 0.1 µM [1, 3] [%] | inhibition at 0.1 µM [1, 4] [%] | IC50 [2] [nM] | inhibition at 1 µM [1, 3] [%] | inhibition at 1 µM [1, 4] [%] | inhibition at 0.33 µM [2] [%] | SMILES
11 | 1 | -30 | 21 |  |  | 91 | COc1cc(F)ccc1-n1nc2c(c1-c1ccc(Cl)cc1)CN(S(=O)(=O)C(C)C)C2 [Cpd 71, 3-(4-Chlorophenyl)-2-(4-fluoro-2-methoxyphenyl)-5-[(1-methylethyl)sulfonyl]-2,4,5,6-tetrahydropyrrolo[3,4-c]pyrazole]
12 |  |  | 8 | 82 | 69 | 95 | COc1ccccc1-n1nc2c(c1-c1ccc(Cl)cc1)CN(S(=O)(=O)N1CCC(C)CC1)C2 [Cpd 57, 3-(4-Chlorophenyl)-2-(2-methoxyphenyl)-5-[(4-methylpiperidin-1-yl)sulfonyl]-2,4,5,6-tetrahydropyrrolo[3,4-c]pyrazole]
13 | 54 | 25 | 7 |  |  |  | COc1ccccc1-n1nc2c(c1-c1ccc(Cl)cc1)CN(S(=O)(=O)N1CCCCCC1)C2 [Cpd 55, 5-(Azepan-1-ylsulfonyl)-3-(4-chlorophenyl)-2-(2-methoxyphenyl)-2,4,5,6-tetrahydropyrrolo[3,4-c]pyrazole]
14 | 47 | 37 | 5 |  |  |  | CCOc1ccccc1-n1nc2c(c1-c1ccc(Cl)cc1)CN(S(=O)(=O)C1CCCC1)C2 [Cpd 51, 3-(4-Chlorophenyl)-5-(cyclopentylsulfonyl)-2-(2-ethoxyphenyl)-2,4,5,6-tetrahydropyrrolo[3,4-c]pyrazole]
15 | 45 | 20 | 4 |  |  |  | COc1ccccc1-n1nc2c(c1-c1ccc(Cl)cc1)CN(S(=O)(=O)N1CCCCC1)C2 [Cpd 62, 3-(4-Chlorophenyl)-2-(2-methoxyphenyl)-5-(piperidin-1-ylsulfonyl)-2,4,5,6-tetrahydropyrrolo[3,4-c]pyrazole]
16 | 50 | 42 | 3 |  |  |  | CCOc1ccccc1-n1nc2c(c1-c1ccc(Cl)cc1)CN(S(=O)(=O)C(C)C)C2 [Cpd 50, 3-(4-Chlorophenyl)-2-(2-ethoxyphenyl)-5-[(1-methylethyl)sulfonyl]-2,4,5,6-tetrahydropyrrolo[3,4-c]pyrazole]
17 | 50 | 40 | 2 |  |  |  | CCOc1ccccc1-n1nc2c(c1-c1ccc(Cl)cc1)CN(S(=O)(=O)C1CCCCC1)C2 [Cpd 52, 3-(4-Chlorophenyl)-5-(cyclohexylsulfonyl)-2-(2-ethoxyphenyl)-2,4,5,6-tetrahydropyrrolo[3,4-c]pyrazole]
18 | 46 | 36 | 2 |  |  |  | CCOc1ccccc1-n1nc2c(c1-c1ccc(Cl)cc1)CN(S(=O)(=O)N(C)C)C2 [Cpd 54, 3-(4-Chlorophenyl)-2-(2-ethoxyphenyl)-N,N-dimethyl-2,6-dihydropyrrolo[3,4-c]pyrazole-5(4H)-sulfonamide]
19 | 44 | 29 | 2 |  |  |  | COc1ccccc1-n1nc2c(c1-c1ccc(Cl)cc1)CN(S(=O)(=O)N1CCCC1)C2 [Cpd 60, 3-(4-Chlorophenyl)-2-(2-methoxyphenyl)-5-(pyrrolidin-1-ylsulfonyl)-2,4,5,6-tetrahydropyrrolo[3,4-c]pyrazole]
